A short description of assay [1]: Luminescence Cell-Based Dose Retest to Confirm Inhibitors of Cancer Stem Cells. [Related pubchem assays (depositor defined):AID2717, AID2721]. In kind it is functional. The note with it: Homo sapiens.
The nature of assay [2]: cytotoxicity in HMLE control line with eGFP shRNA, dose response, counter-screen for HMLE_sh_ECad selective toxicity project, cell-based, HMLE_sh_eGFP, luminescence (AID 463074).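 Further: HMLE human mammary epithelial cells expressing control shRNA against eGFP.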 It is filed as functional, Homo sapiens. Background: A counterscreen serves to expose hits that act by an unwanted route or on another target.
The nature of assay [3]: Luminescence Cell-Based Dose Confirmation HTS to Identify Activators of 5'UTR Stem-Loop Driven Alpha-Synuclein mRNA Translation in H4 Neuroglioblastoma Cells. [Related pubchem assays: 1829 (Project Summary), 1814 (Primary HTS)]. It is filed as functional.
The nature of assay [4]: Luminescence Cell-Based Dose Response HTS to Identify Activators of Luciferase Translation or Activity in H4 […] Cells. [Related pubchem assays: 1829 (Project Summary), 1814 (Primary HTS)]. In kind it is functional.
A further assay deals with H4. The experiment in a line: Luminescence Cell-Based Dose Response HTS to Identify Activators of 5'UTR Stem-Loop Driven Prion Protein mRNA Translation in H4 Neuroglioblastoma Cells. [Related pubchem assays: 1829 (Project Summary), 1814 (Primary HTS)]. The following applies: Homo sapiens. In kind it is functional.
The subject of assay [5] is A-375. Nature of the assay: MITF: Counter assay: A375 proliferation Measured in Cell-Based System Using Plate Reader - 2084-03_Inhibitor_Dose_DryPowder_Activity. [Related pubchem assays (depositor defined):AID488944]. In kind it is functional. The note with it: Homo sapiens.
The test system of assay [6] is A-375. Nature of the assay: A375 melanoma cell viability reduction, dose response, counter-screen for MITF modulator project, cherry-pick samples, set 2 (AID 540335). In kind it is functional, cell-based. The note with it: Homo sapiens.
Assay [7] in a line: HEp-2 cell cytotoxicity, dose response, cytotoxicity control for RSV inhibitor project, HTS (AID 2410). In kind it is functional. The note with it: human respiratory syncytial virus.
In the next assay the test system is Vero. Nature of the assay: cells. It is filed as functional, cell-based. The following applies: Chlorocebus sabaeus.
Assay [8] relates to BJ. Nature of the assay: cytotoxicity toward BJ-TERT fibroblasts, dose response, cell-based, RAS-independent, luminescence (AID 1933). It is filed as functional. The following applies: Homo sapiens.
In assay [9] the test system is BJ. The experiment in a line: cells. It is filed as functional, cell-based. The note with it: Homo sapiens.
In assay [10] the target is Luciferin 4-monooxygenase (Photinus pyralis, UniProt P08659). The experiment in a line: firefly luciferase enzyme inhibitors, dose response, biochemical, luminescence (AID 1891).
Chain of Luciferin 4-monooxygenase (P08659 whole entry): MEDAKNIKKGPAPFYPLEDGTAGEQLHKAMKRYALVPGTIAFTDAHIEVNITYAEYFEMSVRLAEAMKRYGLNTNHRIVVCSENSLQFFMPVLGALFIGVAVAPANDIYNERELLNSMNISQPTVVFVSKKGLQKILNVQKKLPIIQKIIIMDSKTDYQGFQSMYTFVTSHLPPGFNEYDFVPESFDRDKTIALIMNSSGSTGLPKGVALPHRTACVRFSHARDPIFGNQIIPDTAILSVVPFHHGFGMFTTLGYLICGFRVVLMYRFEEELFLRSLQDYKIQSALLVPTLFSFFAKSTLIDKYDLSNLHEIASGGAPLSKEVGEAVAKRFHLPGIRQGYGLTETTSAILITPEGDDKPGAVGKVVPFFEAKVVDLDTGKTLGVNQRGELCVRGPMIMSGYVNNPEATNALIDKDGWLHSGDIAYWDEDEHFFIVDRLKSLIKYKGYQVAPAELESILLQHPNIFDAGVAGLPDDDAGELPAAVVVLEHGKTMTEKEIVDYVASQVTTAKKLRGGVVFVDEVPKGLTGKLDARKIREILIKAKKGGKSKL
A short description of assay [11]: Luminescence Cell-Based Dose Confirmation HTS to Identify Inhibitors of Platelet Dense Granule Release. [Related pubchem assays: 1663 (Primary HTS), 1678 (Summary of Project)]. In kind it is functional.
Assay [12] concerns BJ. Nature of the assay: cytotoxicity toward BJ-TERT-LT-ST fibroblasts, dose response, cell-based, RAS-independent, luminescence (AID 1935).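 Further: BJ fibroblasts immortalized with TERT plus LT and ST oncogenes.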 It is filed as functional. The following applies: Homo sapiens.
Assay [13] in a line: cytotoxicity toward DRD oncogenic fibroblasts, dose response, cell-based, non-viral oncogenic, luminescence (AID 1934). The following applies: Homo sapiens. It is filed as functional.
The subject of another assay is Jurkat. Nature of the assay: antigen receptor-induced NF-kB inhibitors, dose response, Jurkat, luciferase reporter, luminescence, B- and T-cell (AID 489004).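 Further: NF-kB luciferase reporter Jurkat cells stimulated with PMA plus ionomycin.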 In kind it is functional, cell-based. The following applies: Homo sapiens.
A short description of assay [14]: cytotoxicity in HEK-293T NF-kB-Luc cells, dose response, cytotoxicity control for B/T-cell NF-kB inhibitor project, cell-based, uHTS hits (AID 489019).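 Further: IC50 reflects cytotoxicity as loss of cell viability.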 In kind it is functional.
Assay [15] addresses Heat shock protein HSP 90-alpha (Homo sapiens, UniProt P07900). In kind it is functional, organism-based.
Assay [16] deals with BJ. Nature of the assay: cytotoxicity toward Ras-transformed BJeLR fibroblasts, dose response, cell-based, alamar blue fluorescence, cherrypicked samples (AID 2631).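 Further: confirmatory dose-response assay in RAS-dependent BJ fibroblasts engineered with TERT, LT and ST, with cytotoxicity read by fluorescence.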 In kind it is functional. The note with it: Homo sapiens. On the technique in general: The colour change of resazurin is a common sign of viable cells or microbes.
Another assay has as its system INS1. The experiment in a line: beta cell apoptosis inhibitors, cytokine rescue, dose response, luminescence, retest (AID 449756).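 Further: cell death triggered by IL-1 beta plus TNF-alpha plus IFN-gamma mixture; protective hits raise ATP signal compared with cytokine alone wells.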 The note with it: Rattus norvegicus. It is filed as functional, cell-based.
A short description of assay [17]: Shn3 3'UTR reporter inhibitors, dose response, cell-based, Clone20 osteoblasts, firefly luciferase, cherry-picked (AID 624132).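 Further: firefly luciferase luminescence from reporter carrying the Shn3 3'UTR in osteoblasts.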 In kind it is functional.
Assay [18] can be described thus: HepG2 cell cytotoxicity, dose response, cytotoxicity control for Shn3 inhibitor project, CellTiter-Glo, cherry-picked (AID 624134). In kind it is functional, cell-based. In general terms: Cellular ATP, detected with luciferase, serves as a proxy for viable cell number.
Assay [19] deals with Photoreceptor-specific nuclear receptor (Homo sapiens, UniProt Q9Y5X4). In kind it is functional, cell-based.
Chain of Photoreceptor-specific nuclear receptor (Q9Y5X4 whole entry, the tested form may be a part): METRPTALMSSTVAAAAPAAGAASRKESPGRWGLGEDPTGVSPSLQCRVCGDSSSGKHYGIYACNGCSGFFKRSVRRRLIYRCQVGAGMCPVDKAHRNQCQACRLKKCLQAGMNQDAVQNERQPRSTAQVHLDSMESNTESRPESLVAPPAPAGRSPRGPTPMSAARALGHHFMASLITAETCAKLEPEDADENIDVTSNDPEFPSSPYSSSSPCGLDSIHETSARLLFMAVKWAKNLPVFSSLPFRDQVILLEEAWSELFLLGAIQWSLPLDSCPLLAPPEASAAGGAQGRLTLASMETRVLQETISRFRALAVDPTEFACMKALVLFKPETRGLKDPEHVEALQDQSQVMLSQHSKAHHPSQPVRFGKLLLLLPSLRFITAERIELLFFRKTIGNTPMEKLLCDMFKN
Assay [20] is described as follows: inhibitors of HIV Env-driven cell fusion, dose response, cherry-pick (AID 652057). It is filed as functional, cell-based.
The nature of assay [21]: CEM21 lymphoblast cell cytotoxicity, dose response, cytotoxicity control for viral fusion inhibitor project, CellTiter-Glo luminescence, cherry-picked (AID 652042).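 Further: potency for signal decrease meaning cytotoxicity.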 It is filed as functional, cell-based.
A short description of assay [22]: ZM109 Env clade C HIV-1 fusion inhibitors, dose response, HeLa effector, CEM target cells, luciferase, cherry-pick (AID 652058). In kind it is functional, cell-based.
Another assay concerns the target Paired box protein Pax-8 (Homo sapiens, UniProt Q06710). The experiment in a line: inhibitors of PAX8-driven TPO luciferase reporter, dose response, RMG-I cells, cherry-pick (AID 687027).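 Further: luciferase reporter driven by Pax8 target thyroperoxidase promoter measured by SteadyGlo luminescence.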 In kind it is functional, cell-based.
A short description of assay [23]: off-target signal loss in HeLa-CEM21 co-culture – HeLa F-luc CTL cells, cherry-picked, counter-screen for HIV-1 Env fusion inhibitor project, dose response (AID 652040).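 Further: potency for signal decrease marking cytotoxic or nonspecific inhibition.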 It is filed as functional, cell-based.
Assay [24] in a line: inhibitors of clade B AD8 Env fusion, dose response, cell-based, cherry-pick (AID 652062).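 Further: luciferase signal from cell-cell fusion driven by HIV-1 clade B AD8 Env; potency is for inhibitors of fusion seen as a drop in luminescence.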 It is filed as functional.
The nature of assay [25]: A549 cell cytotoxicity, dose response, cytotoxicity control, plate reader, cherry-pick, antagonist series (AID 743412). In kind it is functional, cell-based.
The nature of assay [26]: HepG2 cell cytotoxicity, dose response, cytotoxicity control, plate reader, cherry-pick, antagonist series (AID 743416). In kind it is functional, cell-based.
Assay [27] can be described thus: LGR2 antagonists, dose response, cell-based, HEK293, CRE-luciferase reporter, cherry pick, set 2 (AID 743343).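 Further: transfected cells were stimulated with diluted bursicon conditioned medium after compound addition.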 It is filed as functional.
Assay [28] is described as follows: non-specific cell cytotoxicity, dose response, cytotoxicity control for PAX8 inhibitor project, plate reader, dry powder samples (AID 743021). It is filed as functional, cell-based.
Assay [29] in a line: MC4R antagonists, dose response, counter-screen for LGR2 antagonist project, cell-based, plate reader, cherry pick (AID 743444).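 Further: transfected HEK 293 cells stimulated with alpha-MSH peptide; potency of inhibitors of the alpha-MSH evoked signal.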 In kind it is functional.
The nature of assay [30]: HEK293 cell cytotoxicity, dose response, cytotoxicity control, plate reader, cherry-picked samples (AID 743446). It is filed as functional, cell-based.

This is an account of results in ChEMBL document CHEMBL1201862, “PubChem BioAssay data set” (2004).

A word on the AC50: it is the concentration giving half of the maximal activity seen. The term EC50 denotes the midpoint of the concentration-response curve. By CC50 is commonly meant the concentration that lowers cell viability or growth by half. In general, IC50 refers to the concentration at which inhibition is half-maximal.

The source made the active and inactive calls.

Chain of Paired box protein Pax-8 (Q06710 whole entry, the tested form may be a part): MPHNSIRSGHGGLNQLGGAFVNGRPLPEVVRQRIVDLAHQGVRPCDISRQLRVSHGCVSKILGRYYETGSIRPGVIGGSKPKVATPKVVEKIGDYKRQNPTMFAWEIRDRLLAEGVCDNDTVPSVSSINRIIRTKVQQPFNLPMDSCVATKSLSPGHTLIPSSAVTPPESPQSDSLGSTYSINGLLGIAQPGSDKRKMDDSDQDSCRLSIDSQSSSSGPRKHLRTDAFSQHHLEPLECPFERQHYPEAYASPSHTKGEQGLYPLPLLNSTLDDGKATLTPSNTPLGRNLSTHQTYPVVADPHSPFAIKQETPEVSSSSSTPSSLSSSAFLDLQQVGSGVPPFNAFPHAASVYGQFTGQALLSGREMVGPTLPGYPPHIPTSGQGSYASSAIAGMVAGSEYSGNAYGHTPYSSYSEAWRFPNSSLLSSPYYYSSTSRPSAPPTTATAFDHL

For the compound `O=C(c1cc(-c2ccc(O)cc2)on1)N1CCN(c2ccccc2)CC1`, the concentration at half-maximal activity (AC50) in [1] is 2.89 µM (active); in [2], 23.1 µM (active).

With `Cc1cnn(C(S)=NCCc2ccccc2)c1`, the EC50 in assay [3] is 27.3 µM (active); in assay [4] it was 25.4 µM (active); with H4 it was > 120 µM (not active). Moreover, the AC50 with A-375 [5] and in the assay with A-375 [6] was > 35 µM (active) each time.

On to `Cc1cccc(NC(=O)C(C)Sc2nc3ccccc3c(=O)n2CCCN2CCOCC2)c1` (stereo unspecified), for which, in [7], the CC50 is 30.8 µM (active). The IC50 in the assay with Vero was 23.4 µM (active); in the assay “cells”, 26.8 µM (active).

Turning to `COc1ccccc1C(=O)Nc1nc2ccccc2[nH]1`, the EC50 was 0.802 µM (inconclusive) with BJ [8]; 0.607 µM (inconclusive) in the assay with BJ [9]; 0.159 µM (active) in assay [10]; 0.196 µM (active) in assay [11]; 1.83 µM (inconclusive) in the assay with BJ [12]; 0.734 µM (active) in assay [13]. Besides, in the assay with BJ [16], the EC50 was > 133 µM (inactive). Besides, the 50% inhibitory concentration (IC50) was 0.57 µM (active) in the assay with Jurkat, > 80 µM (inactive) in assay [14] and 3.25 µM (active) in [19]. For the same compound, the AC50 was 0.555 µM (active) in [15]; 1.69 µM (active) in the assay on INS1; 0.868 µM (active) in assay [17]; 6.57 µM (active) in assay [18]; 0.879 µM (active) in assay [20]; 1.71 µM (active) in [21]. The concentration at half-maximal activity (AC50) in assay [22] was 6.08 µM (active); at Paired box protein Pax-8, 2.04 µM (active); in assay [23], 2.57 µM (active); in [24], 1.41 µM (active); in assay [25], 1.29 µM (active); in [26], 6.26 µM (active). Also, the AC50 is 0.217 µM (active) in assay [27], 1.79 µM (active) in assay [28], 0.253 µM (active) in assay [29] and 2.33 µM (active) in assay [30].
